# Reference: patent US20230114728A1 (Venatorx Pharmaceuticals, Inc., priority 2019, published 2023)
# Target: T1, P. aeruginosa PBP3 (Pseudomonas aeruginosa, UniProt G3XD46)
# T1 construct: made in house
# Test: Bocillin-FL fluorescence polarization competition binding assay, P. aeruginosa PBP3
# Conditions: fluorescence polarization competition binding assay using Bocillin-FL
# How it was run: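 Inhibitor competition with Bocillin-FL for P. aeruginosa PBP3 was followed by fluorescence polarization on a Cytation3 (BioTek) reader, using g-factor 0.96, 490 nm excitation and 520 nm emission. The enzyme was at 0.75 μM and the probe at 0.1 μM in Hepes/NaCl/glycerol buffer, 80 μl per well. FP was recorded immediately after probe addition for up to 60 minutes. Potency was expressed as EC50, the concentration that reduces bound probe by 50%.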
# T1 sequence (G3XD46 whole entry): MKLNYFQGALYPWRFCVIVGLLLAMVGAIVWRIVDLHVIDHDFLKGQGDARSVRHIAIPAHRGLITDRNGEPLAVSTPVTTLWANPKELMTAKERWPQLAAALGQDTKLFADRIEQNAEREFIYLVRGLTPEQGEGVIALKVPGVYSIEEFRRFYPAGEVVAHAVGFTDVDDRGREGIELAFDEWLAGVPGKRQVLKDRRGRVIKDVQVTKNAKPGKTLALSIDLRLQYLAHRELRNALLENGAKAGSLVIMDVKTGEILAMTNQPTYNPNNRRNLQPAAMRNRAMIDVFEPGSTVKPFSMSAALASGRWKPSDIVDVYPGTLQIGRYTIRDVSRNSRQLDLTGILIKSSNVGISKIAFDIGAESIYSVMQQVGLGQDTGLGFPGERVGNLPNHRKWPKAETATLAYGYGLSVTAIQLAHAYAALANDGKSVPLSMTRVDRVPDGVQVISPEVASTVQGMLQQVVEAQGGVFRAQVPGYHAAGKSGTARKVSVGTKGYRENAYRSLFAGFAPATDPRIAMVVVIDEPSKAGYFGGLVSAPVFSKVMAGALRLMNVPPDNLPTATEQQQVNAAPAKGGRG
smiles,measurement,value
"CCN1CCN(C(=O)N[C@H](C(=O)N[C@H]2Cc3cccc(C(=O)O)c3OB2O)c2nc(Cl)c(C(=O)O)cc2F)C(=O)C1=O [Example 19, 6-((S)-2-(((R)-8-carboxy-2-hydroxy-3,4-dihydro-2H-benzo[e][1,2]oxaborinin-3-yl)amino)-1-(4-ethyl-2,3-dioxopiperazine-1-carboxamido)-2-oxoethyl)-2-chloro-5-fluoronicotinic acid]",P. aeruginosa PBP3 Potency,D (D represents a potency <10 μM)
"CCN1CCN(C(=O)NC(C(=O)N[C@H]2Cc3cccc(C(=O)O)c3OB2O)c2ccc(O)c(NS(N)(=O)=O)c2)C(=O)C1=O (stereo partly drawn) [Example 30, (3R)-3-(2-(4-ethyl-2,3-dioxopiperazine-1-carboxamido)-2-(4-hydroxy-3-(sulfamoylamino)phenyl)acetamido)-2-hydroxy-3,4-dihydro-2H-benzo[e][1,2]oxaborinine-8-carboxylic acid]",P. aeruginosa PBP3 Potency,D (D represents a potency <10 μM)
"CCN1CCN(C(=O)NC(C(=O)N[C@H]2Cc3cccc(C(=O)O)c3OB2O)c2ncc(C(=O)O)cc2F)C(=O)C1=O (stereo partly drawn) [Example 20, 6-(2-(((R)-8-carboxy-2-hydroxy-3,4-dihydro-2H-benzo[e][1,2]oxaborinin-3-yl)amino)-1-(4-ethyl-2,3-dioxopiperazine-1-carboxamido)-2-oxoethyl)-5-fluoronicotinic acid]",P. aeruginosa PBP3 Potency,D (D represents a potency <10 μM)
"NCCCN1CCN(C(=O)N[C@H](C(=O)N[C@H]2Cc3ccc(F)c(C(=O)O)c3OB2O)c2ccc(O)c(O)c2Cl)C(=O)C1=O (single isomer, unassigned) [Example 28]",P. aeruginosa PBP3 Potency,B (B represents a potency between 30 μM and 500 μM inclusive)
"CCN1CCN(C(=O)NC(C(=O)N[C@H]2Cc3cccc(C(=O)O)c3OB2O)c2ccc(N)c(F)c2)C(=O)C1=O (stereo partly drawn) [Example 50, (3R)-3-(2-(4-amino-3-fluorophenyl)-2-(4-ethyl-2,3-dioxopiperazine-1-carboxamido)acetamido)-2-hydroxy-3,4-dihydro-2H-benzo[e][1,2]oxaborinine-8-carboxylic acid]",P. aeruginosa PBP3 Potency,D (D represents a potency <10 μM)
"O=C(Nc1ccccc1)NC(C(=O)N[C@H]1Cc2ccc(F)c(C(=O)O)c2OB1O)c1ncc(O)cc1F (stereo partly drawn) [Example 49, (3R)-7-fluoro-3-(2-(3-fluoro-5-hydroxypyridin-2-yl)-2-(3-phenylureido)acetamido)-2-hydroxy-3,4-dihydro-2H-benzo[e][1,2]oxaborinine-8-carboxylic acid]",P. aeruginosa PBP3 Potency,D (D represents a potency <10 μM)
"NCCN1CCN(C(=O)NC(C(=O)N[C@H]2Cc3ccc(F)c(C(=O)O)c3OB2O)c2nc(N)sc2F)C(=O)C1=O (stereo partly drawn) [Example 24, (3R)-3-(2-(2-amino-5-fluorothiazol-4-yl)-2-(4-(2-aminoethyl)-2,3-dioxopiperazine-1-carboxamido)acetamido)-7-fluoro-2-hydroxy-3,4-dihydro-2H-benzo[e][1,2]oxaborinine-8-carboxylic acid]",P. aeruginosa PBP3 Potency,B (B represents a potency between 30 μM and 500 μM inclusive)
"NS(=O)(=O)NC(C(=O)N[C@H]1Cc2ccc(F)c(C(=O)O)c2OB1O)c1ncc(O)cc1F (stereo partly drawn) [Example 43, (3R)-7-fluoro-3-(2-(3-fluoro-5-hydroxypyridin-2-yl)-2-(sulfamoylamino)acetamido)-2-hydroxy-3,4-dihydro-2H-benzo[e][1,2]oxaborinine-8-carboxylic acid]",P. aeruginosa PBP3 Potency,C (C represents a potency between 10 and 30 μM)
